How the values were obtained:
[1] = Pharmacokinetic properties in rats (IV and PO, LC-MS/MS); type: in vivo; settings: for F: SD rats; for AUC(0-inf) / Cmax / clearance / half-life / Vd: male, Sprague-Dawley (SD), rat, plasma; for Vd: read-out: Vz
Protocol: • 1. Test purpose: to determine the pharmacokinetic characteristics of some of the example compound of the present invention in SD rats after single intravenous injection(IV) and oral administration(PO) by LC-MS/MS method. • 2. […] Animal production license number (SCXK (Shanghai) 2018-0006). • 3. Test method:
Preparation of 0.5% methyl cellulose: 5 g of methyl cellulose were weighed and dissolved in 1000 mL of purified water.
Preparation of oral formulation: A required amount of test compound was weighed and dissolved in 0.5% methyl cellulose solution to obtain a suspension or solution of 0.5 mg/mL.
Preparation of intravenous injection formulation: A required amount of test compound was weighed, and dissolved in 0.5 mL of dimethyl sulfoxide to prepare a solution of 4 mg/mL. 0.25 mL of the above solution was added into 0.5 mL of polyethylene glycol 15 hydroxystearate (solutol) and 4.25 mL of normal saline to obtain a solution of 0.2 mg/mL.
The dosage and volume administered were shown in the table below Feeding, 4 hours after administration
Sample Collection: blood is collected through jugular vein or other suitable vein, and 0.2 mL of blood was collected at each time point. Samples were placed into tubes containing ethylenediaminetetraacetic acid dipotassium salt and kept on ice before centrifugation. Within 1 hour after blood collection, the blood samples were centrifuged at 2-8° C. and 6800 g for 6 minutes and stored at −80° C. The time point for blood collection was 0.083, 0.25, 0.5, 1, 2, 4, 8 and 24 hours after intravenous administration, and 0.25, 0.5, 1, 2, 4, 6, 8 and 24 hours after oral administration.

[2] = Brain tissue distribution test; type: in vivo; settings: SD rats, PO 20 mg/kg
Protocol: 5 g of methyl cellulose was weighed and dissolved in 1000 mL of purified water to obtain 0.5% methyl cellulose. A required amount of the test compound was weighed and dissolved in 0.5% methylcellulose solution to obtain a suspension of 2 mg/mL.
Administration: SD rats were orally administered (PO) after overnight fasting. Feeding 4 hours after administration.
Sample Collection: 0.5 mL of blood was collected at each time point via the jugular vein. Samples were placed into tubes containing ethylenediamine tetraacetic acid dipotassium salt (K2EDTA) and kept on ice before centrifugation. Within 1 hour after blood collection, blood samples were centrifuged at 2-8° C. and 6800 g for 6 minutes and stored at −80° C. After the rats were euthanized by carbon dioxide inhalation, the brains of the rats were collected, quickly frozen on dry ice, and stored at −80° C. before bioanalysis. The time points for blood collection were 0.5 and 2 hours after oral administration.

[3] = molecular target: CYP 2C19 (Homo sapiens, UniProt P33261); assay: CYP inhibition test, human liver microsomes, CYP2C19
Protocol: • 1. Test purpose: to evaluate the inhibitory ability of some of the example compounds of the present invention against CYP1A2, 2B6, 2C8, 2C9, 2C19, 2D6 and 3A4 via human liver microsomes. • 2. […] Test method:
• 1. K/Mg buffer: the components were 0.1 mol/L potassium phosphate and 5 mmol/L magnesium chloride with pH 7.4±0.1, preheated. • 2. Solution of the test compound: the test compound was dissolved in dimethyl sulfoxide to prepare a stock solution of 10 mmol/L. 8 μL of 10 mmol/L stock solution was transferred to a 96-well plate containing 12 μL of acetonitrile as the highest concentration point, at 3-fold dilution, for 8 concentrations. • 3. NADPH solution: 66.7 mg of NADPH was dissolved in 10 mL of 0.1 mol/L K/Mg buffer to obtain 8 mmol/L NADPH solution with pH 7.4. • 4. Human liver microsomal stock solution: human liver microsomes were dissolved in 0.1 mol/L K/Mg buffer to obtain 20 mg/mL stock solution. • 5. Human liver microsomal working solution: 10 μL of 20 mg/mL human liver microsomal stock solution was taken and added into 990 μL of 0.1 mol/L K/Mg buffer to prepare 0.2 mg/mL human liver microsomal solution. • 6. […]

[4] = molecular target: hERG potassium channel (Homo sapiens, UniProt Q12809); assay: hERG experiment, manual membrane clamp on HEK293 cells
hERG potassium channel, sequence (Q12809 whole entry): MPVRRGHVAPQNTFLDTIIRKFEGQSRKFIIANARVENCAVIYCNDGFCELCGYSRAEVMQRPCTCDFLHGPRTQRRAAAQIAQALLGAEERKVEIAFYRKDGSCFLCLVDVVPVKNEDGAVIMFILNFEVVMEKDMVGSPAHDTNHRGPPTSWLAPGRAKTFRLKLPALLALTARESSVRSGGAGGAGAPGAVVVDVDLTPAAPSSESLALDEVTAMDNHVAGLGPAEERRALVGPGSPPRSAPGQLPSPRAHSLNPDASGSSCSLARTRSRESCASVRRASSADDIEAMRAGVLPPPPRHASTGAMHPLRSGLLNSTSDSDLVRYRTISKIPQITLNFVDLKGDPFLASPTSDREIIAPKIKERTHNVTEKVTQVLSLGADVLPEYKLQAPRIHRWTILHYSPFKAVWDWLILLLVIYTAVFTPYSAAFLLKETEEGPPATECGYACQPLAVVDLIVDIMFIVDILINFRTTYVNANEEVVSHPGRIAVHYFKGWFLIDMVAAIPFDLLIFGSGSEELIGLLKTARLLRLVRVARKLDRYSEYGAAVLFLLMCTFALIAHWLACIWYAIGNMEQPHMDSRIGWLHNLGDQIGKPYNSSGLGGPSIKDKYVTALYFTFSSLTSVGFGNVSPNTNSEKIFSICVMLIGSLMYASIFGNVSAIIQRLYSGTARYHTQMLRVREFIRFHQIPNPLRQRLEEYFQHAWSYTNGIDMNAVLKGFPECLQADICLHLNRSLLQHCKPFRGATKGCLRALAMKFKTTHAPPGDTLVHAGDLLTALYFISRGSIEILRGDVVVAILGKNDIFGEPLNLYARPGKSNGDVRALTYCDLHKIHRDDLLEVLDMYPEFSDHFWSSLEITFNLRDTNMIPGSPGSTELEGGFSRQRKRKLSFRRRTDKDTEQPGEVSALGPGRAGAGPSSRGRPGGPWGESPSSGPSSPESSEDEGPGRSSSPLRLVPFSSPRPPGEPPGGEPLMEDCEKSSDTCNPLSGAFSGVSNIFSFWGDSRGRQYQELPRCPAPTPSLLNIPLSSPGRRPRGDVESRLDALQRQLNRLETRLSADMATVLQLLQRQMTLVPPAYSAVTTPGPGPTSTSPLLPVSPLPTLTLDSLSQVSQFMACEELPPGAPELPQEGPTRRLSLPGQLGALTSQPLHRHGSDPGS
Excerpt: hERG Experiment • 1. Test purpose: to test the inhibition of hERG current on HEK293 cells stably transfected with hERG potassium channel by manual membrane clamp; • 2. […] Manual membrane clamp system amplifier was purchased from Molecular Devices (Model No. MultiClamp700B); Manual membrane clamp system digital-to-analog converter was purchased from Molecular Devices (Model No. Axon Digidata1550B); Rapid perfusion system was purchased from ALA Scientific Ins. […] Experimental methods:
The cells were resuspended with culture medium and stored in a centrifuge tube, the supernatant was discarded after centrifugation, then the cells were resuspended with extracellular liquid for later use, and stored at 2-8° C.
The whole-cell membrane clamp technique was applied to record hERG currents. The cell suspension was added into small Petri dishes and placed on an inverted microscope stage. After cells were adhered, they were perfused with extracellular fluid at a recommended flow rate of 1-2 mL/min. The glass microelectrode was drawn in two steps by a micropipette puller, and its resistance value in water was 2-5 MΩ after filling with electrode internal fluid.
After the whole-cell recording mode was established, the clamp potential was maintained at −80 mV. […]
Stimulus release and signal acquisition were performed on PatchMaster software. […] Data was expressed as mean and standard deviation. […]

CYP 2C19, sequence (P33261 whole entry): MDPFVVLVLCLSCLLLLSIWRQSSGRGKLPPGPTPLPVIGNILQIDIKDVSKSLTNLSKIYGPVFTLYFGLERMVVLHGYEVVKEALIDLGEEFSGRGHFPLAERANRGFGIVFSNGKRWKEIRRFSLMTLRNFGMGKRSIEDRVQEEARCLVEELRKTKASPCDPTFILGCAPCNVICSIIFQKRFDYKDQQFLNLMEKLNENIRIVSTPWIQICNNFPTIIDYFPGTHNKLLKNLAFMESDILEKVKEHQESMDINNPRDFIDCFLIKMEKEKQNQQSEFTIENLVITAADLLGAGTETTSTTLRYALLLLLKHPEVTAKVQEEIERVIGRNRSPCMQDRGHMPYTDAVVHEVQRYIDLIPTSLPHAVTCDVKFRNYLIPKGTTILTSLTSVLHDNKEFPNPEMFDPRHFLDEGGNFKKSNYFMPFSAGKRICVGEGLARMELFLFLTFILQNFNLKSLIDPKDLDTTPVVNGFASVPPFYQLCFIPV

Compound `C=CC(=O)N1CCN(c2nc(=O)n(-c3c(C)ccnc3C(C)C)c3nc(-c4c(O)cccc4F)c(F)cc23)[C@@H](C)C1` [AMG510] has an F ([1]; oral gavage, 5 mg/kg) of 35.41%, an AUC(0-inf) ([1]; intravenous injection, 1 mg/kg) of 319 ng·h/mL and a Cmax ([1]; intravenous injection, 1 mg/kg) of 762 ng/mL. The clearance ([1]; intravenous injection, 1 mg/kg) was 50.7 mL/min/kg, the half-life ([1]; intravenous injection, 1 mg/kg) was 0.36 h and the Vd ([1]; intravenous injection, 1 mg/kg) was 1.57 L/kg. For the same compound, the AUC(0-inf) ([1]; oral gavage, 5 mg/kg) was 584 ng·h/mL, the Cmax ([1]; oral gavage, 5 mg/kg) was 1260 ng/mL and the half-life ([1]; oral gavage, 5 mg/kg) was 1.81 h. For the same compound, the “Brain concentration 0.5 hours after administration (ng/g)” value ([2]; 0.5 hours) was “Below detection limit”, the “Brain concentration 2 hours after administration (ng/g)” value ([2]; 2 hours) was “Below detection limit” and the IC50 [3] was greater than 10 µM. For the same compound, the IC50 [4] was greater than 30 µM.
In the case of `C=C(F)C(=O)N1CCN(c2nc(OC[C@@H]3CCCN3C)nc3c2CCN(c2cccc4cccc(Cl)c24)C3)C[C@@H]1CC#N` [MRTX849], the F ([1]; oral gavage, 5 mg/kg) is reported as 13.66%, the AUC(0-inf) ([1]; intravenous injection, 1 mg/kg) is reported as 348 ng·h/mL and the Cmax ([1]; intravenous injection, 1 mg/kg) is reported as 137 ng/mL. For the same compound, the clearance ([1]; intravenous injection, 1 mg/kg) was 48.1 mL/min/kg, the half-life ([1]; intravenous injection, 1 mg/kg) was 3.16 h and the Vd ([1]; intravenous injection, 1 mg/kg) was 13.1 L/kg. It also gave an AUC(0-inf) ([1]; oral gavage, 5 mg/kg) of 238 ng·h/mL, a Cmax ([1]; oral gavage, 5 mg/kg) of 23.3 ng/mL and a half-life ([1]; oral gavage, 5 mg/kg) of 2.8 h. It also gave a concentration at 0.5 h ([2]; Sprague-Dawley (SD), rat, brain, 0.5 hours, read-out: Brain concentration 0.5 hours after administration) of 8 ng/g, a concentration at 2 h ([2]; Sprague-Dawley (SD), rat, brain, 2 hours, read-out: Brain concentration 2 hours after administration) of 69.8 ng/g and an IC50 [3] greater than 10 µM. It also gave an IC50 [4] of 0.99 µM.

— patent US20250034161A1, “SPIROCYCLIC COMPOUND AS KRAS-G12C INHIBITOR” (Shanghai Euregen Biopharma Co., Ltd., priority 2020, published 2025)
